Laboratory results published in PubChem BioAssay (NCI).
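Assay format: 96-well plates, 48-hour exposure. GI50 is the concentration that inhibits growth by half. TGI: total growth inhibition.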

How the values were obtained:
Test in all cases: DTP human tumour cell line panel, 48 h
786-0 renal = test system: 786-0 renal
A498 renal = test system: A498 renal
A549 NSCLC = test system: A549 NSCLC
ACHN renal = test system: ACHN renal
BT-549 breast = test system: BT-549 breast
CAKI-1 renal = test system: CAKI-1 renal
CCRF-CEM leukemia = test system: CCRF-CEM leukemia
COLO 205 colon = test system: COLO 205 colon
DU-145 prostate = test system: DU-145 prostate
EKVX NSCLC = test system: EKVX NSCLC
HCC-2998 colon = test system: HCC-2998 colon
HCT-116 colon = test system: HCT-116 colon
HCT-15 colon = test system: HCT-15 colon
HL-60(TB) leukemia = test system: HL-60(TB) leukemia
HOP-62 NSCLC = test system: HOP-62 NSCLC
HOP-92 NSCLC = test system: HOP-92 NSCLC
HS 578T breast = test system: HS 578T breast
HT29 colon = test system: HT29 colon
IGROV1 ovarian = test system: IGROV1 ovarian
K-562 leukemia = test system: K-562 leukemia
KM12 colon = test system: KM12 colon
LOX IMVI melanoma = test system: LOX IMVI melanoma
M14 melanoma = test system: M14 melanoma
MALME-3M melanoma = test system: MALME-3M melanoma
MCF7 breast = test system: MCF7 breast
MDA-MB-231 breast = test system: MDA-MB-231 breast
MDA-MB-435 = test system: MDA-MB-435
MDA-MB-468 breast = test system: MDA-MB-468 breast
MOLT-4 leukemia = test system: MOLT-4 leukemia
NCI-H226 lung = test system: NCI-H226 lung
NCI-H23 lung = test system: NCI-H23 lung
NCI-H460 lung = test system: NCI-H460 lung
NCI-H522 lung = test system: NCI-H522 lung
OVCAR-3 ovarian = test system: OVCAR-3 ovarian
OVCAR-4 ovarian = test system: OVCAR-4 ovarian
OVCAR-5 ovarian = test system: OVCAR-5 ovarian
OVCAR-8 ovarian = test system: OVCAR-8 ovarian
PC-3 prostate = test system: PC-3 prostate
RPMI-8226 leukemia = test system: RPMI-8226 leukemia
RXF 393 renal = test system: RXF 393 renal
SF-268 CNS = test system: SF-268 CNS
SF-295 CNS = test system: SF-295 CNS
SF-539 CNS = test system: SF-539 CNS
SK-MEL-2 melanoma = test system: SK-MEL-2 melanoma
SK-MEL-28 melanoma = test system: SK-MEL-28 melanoma
SK-MEL-5 melanoma = test system: SK-MEL-5 melanoma
SK-OV-3 ovarian = test system: SK-OV-3 ovarian
SN12C renal = test system: SN12C renal
SNB-19 CNS = test system: SNB-19 CNS
SNB-75 CNS = test system: SNB-75 CNS
SR leukemia = test system: SR leukemia
SW-620 colon = test system: SW-620 colon
T-47D breast = test system: T-47D breast
TK-10 renal = test system: TK-10 renal
U251 CNS = test system: U251 CNS
UACC-257 melanoma = test system: UACC-257 melanoma
UACC-62 melanoma = test system: UACC-62 melanoma
UO-31 renal = test system: UO-31 renal

For `C[C@H](Nc1nc(NCCc2ccccc2)nc2ccccc12)c1ccccc1`, the GI50 (786-0 renal) was 1480 nM, the TGI (786-0 renal) was 2840 nM and the GI50 (A498 renal) was 1450 nM. It also gave a TGI (A498 renal) of 3.37 µM, a GI50 (A549 NSCLC) of 1760 nM and a TGI (A549 NSCLC) of 6.18 µM. For the same compound, the GI50 (ACHN renal) was 1720 nM, the TGI (ACHN renal) was 3.81 µM and the GI50 (BT-549 breast) was 1330 nM. The TGI (BT-549 breast) was 2640 nM, the GI50 (CAKI-1 renal) was 1360 nM and the TGI (CAKI-1 renal) was 2730 nM. It also gave a GI50 (CCRF-CEM leukemia) of 1950 nM, a TGI (CCRF-CEM leukemia) of 7.66 µM and a GI50 (COLO 205 colon) of 1150 nM. For the same compound, the TGI (COLO 205 colon) was 2430 nM, the GI50 (DU-145 prostate) was 2480 nM and the TGI (DU-145 prostate) was 6.95 µM. For the same compound, the GI50 (EKVX NSCLC) was 1420 nM, the TGI (EKVX NSCLC) was 3.21 µM and the GI50 (HCC-2998 colon) was 1400 nM. For the same compound, the TGI (HCC-2998 colon) was 2700 nM, the GI50 (HCT-116 colon) was 1260 nM and the TGI (HCT-116 colon) was 2510 nM. For the same compound, the GI50 (HCT-15 colon) was 1420 nM, the TGI (HCT-15 colon) was 2900 nM and the GI50 (HL-60(TB) leukemia) was 1400 nM. For the same compound, the TGI (HL-60(TB) leukemia) was 3.98 µM, the GI50 (HOP-62 NSCLC) was 1520 nM and the TGI (HOP-62 NSCLC) was 2930 nM. The GI50 (HOP-92 NSCLC) was 1080 nM, the TGI (HOP-92 NSCLC) was 2470 nM and the GI50 (HS 578T breast) was 1450 nM. It also gave a TGI (HS 578T breast) of 3.46 µM, a GI50 (HT29 colon) of 1260 nM and a TGI (HT29 colon) of 2960 nM. The GI50 (IGROV1 ovarian) was 1550 nM, the TGI (IGROV1 ovarian) was 3.26 µM and the GI50 (K-562 leukemia) was 1040 nM. It also gave a TGI (K-562 leukemia) of 3.62 µM, a GI50 (KM12 colon) of 1780 nM and a TGI (KM12 colon) of 3.73 µM. For the same compound, the GI50 (LOX IMVI melanoma) was 1590 nM, the TGI (LOX IMVI melanoma) was 3.01 µM and the GI50 (M14 melanoma) was 1530 nM. For the same compound, the TGI (M14 melanoma) was 2920 nM, the GI50 (MALME-3M melanoma) was 1400 nM and the TGI (MALME-3M melanoma) was 2780 nM. The GI50 (MCF7 breast) was 1470 nM, the TGI (MCF7 breast) was 2990 nM and the GI50 (MDA-MB-231 breast) was 1680 nM. It also gave a TGI (MDA-MB-231 breast) of 3.1 µM, a GI50 (MDA-MB-435) of 1370 nM and a TGI (MDA-MB-435) of 2730 nM. For the same compound, the GI50 (MDA-MB-468 breast) was 1130 nM, the TGI (MDA-MB-468 breast) was 2450 nM and the GI50 (MOLT-4 leukemia) was 1500 nM. For the same compound, the TGI (MOLT-4 leukemia) was 3.64 µM, the GI50 (NCI-H226 lung) was 1450 nM and the TGI (NCI-H226 lung) was 3.04 µM. It also gave a GI50 (NCI-H23 lung) of 1440 nM, a TGI (NCI-H23 lung) of 2900 nM and a GI50 (NCI-H460 lung) of 1350 nM. For the same compound, the TGI (NCI-H460 lung) was 2830 nM, the GI50 (NCI-H522 lung) was 1500 nM and the TGI (NCI-H522 lung) was 3.09 µM. It also gave a GI50 (OVCAR-3 ovarian) of 1340 nM, a TGI (OVCAR-3 ovarian) of 2980 nM and a GI50 (OVCAR-4 ovarian) of 1680 nM. It also gave a TGI (OVCAR-4 ovarian) of 5.9 µM, a GI50 (OVCAR-5 ovarian) of 1630 nM and a TGI (OVCAR-5 ovarian) of 3.42 µM. For the same compound, the GI50 (OVCAR-8 ovarian) was 1400 nM, the TGI (OVCAR-8 ovarian) was 2820 nM and the GI50 (PC-3 prostate) was 1370 nM. For the same compound, the TGI (PC-3 prostate) was 3.27 µM, the GI50 (RPMI-8226 leukemia) was 1400 nM and the TGI (RPMI-8226 leukemia) was 4.17 µM. For the same compound, the GI50 (RXF 393 renal) was 1070 nM, the TGI (RXF 393 renal) was 2310 nM and the GI50 (SF-268 CNS) was 2070 nM. For the same compound, the TGI (SF-268 CNS) was 6.31 µM, the GI50 (SF-295 CNS) was 1460 nM and the TGI (SF-295 CNS) was 2790 nM. For the same compound, the GI50 (SF-539 CNS) was 1700 nM, the TGI (SF-539 CNS) was 3.13 µM and the GI50 (SK-MEL-2 melanoma) was 1370 nM. It also gave a TGI (SK-MEL-2 melanoma) of 2710 nM, a GI50 (SK-MEL-28 melanoma) of 1470 nM and a TGI (SK-MEL-28 melanoma) of 2800 nM. It also gave a GI50 (SK-MEL-5 melanoma) of 1370 nM, a TGI (SK-MEL-5 melanoma) of 2660 nM and a GI50 (SK-OV-3 ovarian) of 1560 nM. The TGI (SK-OV-3 ovarian) was 3 µM, the GI50 (SN12C renal) was 1760 nM and the TGI (SN12C renal) was 4.13 µM. For the same compound, the GI50 (SNB-19 CNS) was 2020 nM, the TGI (SNB-19 CNS) was 5.56 µM and the GI50 (SNB-75 CNS) was 563 nM. The TGI (SNB-75 CNS) was 3.49 µM, the GI50 (SR leukemia) was 1460 nM and the TGI (SR leukemia) was 3.51 µM. The GI50 (SW-620 colon) was 1400 nM, the TGI (SW-620 colon) was 2880 nM and the GI50 (T-47D breast) was 1420 nM. For the same compound, the TGI (T-47D breast) was 3.66 µM, the GI50 (TK-10 renal) was 1930 nM and the TGI (TK-10 renal) was 5.44 µM. For the same compound, the GI50 (U251 CNS) was 1440 nM, the TGI (U251 CNS) was 2830 nM and the GI50 (UACC-257 melanoma) was 1520 nM. For the same compound, the TGI (UACC-257 melanoma) was 3.04 µM, the GI50 (UACC-62 melanoma) was 1530 nM and the TGI (UACC-62 melanoma) was 2900 nM. The GI50 (UO-31 renal) was 1220 nM and the TGI (UO-31 renal) was 2530 nM.
